pKi: −log10 of the molar value.
Legend:
[1] = Cytotoxicity measured as % loss of cells after 60 min; type: cell-based; conditions: rat, 1 h
[2] = Cytotoxicity measured as % loss of cells after 90 min; type: cell-based; conditions: rat
[3] = Cytotoxicity measured as % loss of cells after 120 min; type: cell-based; conditions: rat, 2 h
[4] = target: Amine oxidase [flavin-containing] B (Bos taurus) (UniProt P56560); test: Inactivation of monoamine oxidase measured as kinetic constant, Kinact at 0.8-4 conc range
[5] = target: Amine oxidase [flavin-containing] B (Bos taurus) (UniProt P56560)
[6] = target: Amine oxidase [flavin-containing] B (Bos taurus) (UniProt P56560); test: Inactivation of monoamine oxidase measured as kinetic constant, KI at 0.8-4 conc range

Chain of Amine oxidase [flavin-containing] B (Bos taurus) (P56560 whole entry, looked up): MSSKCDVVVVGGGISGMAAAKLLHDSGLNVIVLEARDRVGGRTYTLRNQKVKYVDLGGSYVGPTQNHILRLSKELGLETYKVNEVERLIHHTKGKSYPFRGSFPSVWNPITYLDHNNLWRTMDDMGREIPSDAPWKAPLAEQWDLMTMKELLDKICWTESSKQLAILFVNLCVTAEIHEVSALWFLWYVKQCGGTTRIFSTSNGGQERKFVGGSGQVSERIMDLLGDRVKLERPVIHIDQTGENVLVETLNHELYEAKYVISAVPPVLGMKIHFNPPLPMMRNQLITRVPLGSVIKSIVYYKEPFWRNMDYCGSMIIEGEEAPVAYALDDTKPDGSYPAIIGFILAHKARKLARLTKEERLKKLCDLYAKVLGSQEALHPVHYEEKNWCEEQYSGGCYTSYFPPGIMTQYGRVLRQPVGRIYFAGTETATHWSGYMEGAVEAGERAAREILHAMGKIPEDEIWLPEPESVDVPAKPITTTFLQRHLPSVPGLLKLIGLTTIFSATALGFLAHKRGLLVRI

Compound | kinact [4] [s⁻¹] | pKi [5] | pKi [6] | Loss of cells [1] [%] | Loss of cells [2] [%] | Loss of cells [3] [%]
CN1CC=C(c2ccccc2)CC1 |  |  |  | 12 | 58 | 81
C#CCN(C)Cc1ccccc1.CN1CC=C(c2ccccc2)CC1 |  |  |  | 6 | 11 | 5
C#CCN(C)Cc1ccccc1.NC1C=C(c2ccccc2)CCC1 (stereo not given) |  |  |  | 24 | 51 | 69
C#CCN(C)Cc1ccccc1.CN(C)C1C=C(c2ccccc2)CCC1 (stereo not given) |  |  |  | 100 |  | 
NC1C=C(c2ccccc2)CCC1 (stereo not given) |  | 3.29 |  | 28 | 35 | 60

Further lines, with some results ahead:

kinact [4] [s⁻¹] | pKi [5] | pKi [6] | Compound | Loss of cells [1] [%] | Loss of cells [2] [%] | Loss of cells [3] [%]
0.00356 | 2.87 | 2.88 | CN(C)C/C=C/c1ccccc1 |  |  | 
 | 2.72 |  | C/C=C(\C)c1ccccc1 |  |  | 
 | 2.98 |  | CN(C)C1C=C(c2ccccc2)CCC1 (stereo not given) | 100 |  | 

— ChEMBL document CHEMBL1124176, “1-Methyl-4-phenyl-1,2,3,6-tetrahydropyridine analogues. Inactivation of monoamine oxidase by conformationally rigid analogues of N,N-dimethylcinnamylamine” (J Med Chem, 1988)
